Source: patent publication US20040081972A1, “Novel physiologically active peptide and use thereof” (priority 2000, published 2004)

Experiments:
Assay type in all cases: cell-based
Settings in all cases: final concentration 1 μmol/l
[1] = system: blood vessel of an apoaequorin transgenic mouse; test: Intracellular calcium (aequorin luminescence) in blood vessel pieces of apoaequorin transgenic mouse
Protocol: (§1) In order to evaluate physiological activities of the peptides prepared in Example 1, the prepared peptides were allowed to act upon organs excised from the living body, and changes in the concentration of an intracellular signal transduction substance in cells constituting the organs were measured.
(§2) In order to measure changes in the concentration of an intracellular signal transduction substance in cells constituting the organs, a transgenic mouse prepared by integrated an apoaequorin gene expression vector into a chromosome was used. Specifically, a female mouse derived from the transgenic mouse disclosed in Reference Example 4 as an individual number 98075-04-6 was used in the test. The transgenic mouse was prepared and reared as an SPF animal in a clean room, and was not contaminated with pathogens including mouse hepatitis virus, Sendai virus, mycoplasma and Tyzzer bacterium.
Aequorin is a bioluminescent protein complex which is present in the umbrella region of luminescent Aequorea victoria. Aequorin is constituted from its protein moiety apoaequorin, its luminescence substrate coelent razin and molecular oxygen, and emits light by its binding with calcium ion. Since expression of the apoaequorin protein has been confirmed in at least thymus, spleen, abdominal muscle, diaphragm, kidney, crystalline lens, pancreas, fat tissue, liver, skull, blood vessel, ovary, womb and adrenal gland of the transgenic mouse used in the test, it was able to monitor changes in the intracellular calcium ion concentration in these organs with a high sensitivity.
Organs were prepared from offsprings borne from the female of individual number 98075-04-6 to examine the activities of the peptides produced in Example 1. After the offsprings were killed, the thymus, spleen, abdominal muscle, diaphragm, kidney, crystalline lens, pancreas, fat tissue, liver, skull, blood vessel, ovary, womb and adrenal gland were excised. Each of the excised organs was cut into small cubes of about 1 to 2 mm square in PBS containing 10 units/ml of heparin sodium and thoroughly washed by changing the solution. Next, three pieces of each of the organ samples thus prepared were put into a 5 ml capacity tube (Rohren-Tubes; No. 55.476, manufactured by Sarstedt) which had been charged with RPMI 1640 medium containing 200 μl of 10 μmol/l coelenterazine (manufactured by Molecular Probes), and cultured at 37° C. for 5 hours. Five hours after, various substances shown below dissolved in RPMI 1640 medium were added at 200 μl, and the luminescence was measured just after the addition at 1 second intervals using a luminometer AutoLumat LB953 (manufactured by BERTHOLD).

[2] = system: womb of an apoaequorin transgenic mouse; test: Intracellular calcium (aequorin luminescence) in womb pieces of apoaequorin transgenic mouse
Protocol: as §1
as §2, with “The transgenic mouse was prepared and reared as an SPF animal in a clean room, and was not contaminated with pathogens including mouse hepatitis virus, Sendai virus, mycoplasma and Tyzzer bacterium.” left out
(§3) Aequorin is a bioluminescent protein complex which is present in the umbrella region of luminescent Aequorea victoria. Aequorin is constituted from its protein moiety apoaequorin, its luminescence substrate coelent razin and molecular oxygen, and emits light by its binding with calcium ion. […]
(§4) Organs were prepared from offsprings borne from the female of individual number 98075-04-6 to examine the activities of the peptides produced in Example 1. […] Five hours after, various substances shown below dissolved in RPMI 1640 medium were added at 200 μl, and the luminescence was measured just after the addition at 1 second intervals using a luminometer AutoLumat LB953 (manufactured by BERTHOLD).

[3] = system: adrenal gland of an apoaequorin transgenic mouse; test: Intracellular calcium (aequorin luminescence) in adrenal gland pieces of apoaequorin transgenic mouse
Protocol: as §1
as §2, with “The transgenic mouse was prepared and reared as an SPF animal in a clean room, and was not contaminated with pathogens including mouse hepatitis virus, Sendai virus, mycoplasma and Tyzzer bacterium.” left out
as §3, §4

Measured: luminescence (intracellular calcium increase)

angiotensin II [purchased from Research Biochemicals International (product code: A-151)]
Strong luminescence: all assays above
